Tests used:
[1] = test system: promoter region of the human IL-13 gene; experiment: IL-13 promoter-luciferase reporter assay; format: cell-based; conditions: 10 μM cPGI, 24 h
From the text: Promoter sequences of human IL-13 gene containing PPRE and GATA elements were isolated from human leukocyte genomic DNA by polymerase chain reaction (PCR) with primers A (5′-[…]-3′ (SEQ ID NO: 3); sense) and D (5′-[…]-3′ (SEQ ID No: 4); antisense) for the 1.3 kbp fragment, and B (5′-[…]-3′ (SEQ ID NO: 5); sense) and D for the 0.4 kbp fragment. Each fragment was inserted into the MluI-XbaI site of pGL3-promoter vector (Promega, Madison, Wis.). Human vascular endothelial cells (1.2×10^4 cells/cm^2) were cotransfected with 0.2 μg of IL-13-luciferase reporter vector, 0.1 μg of β-galactosidase expression vector and 0.7 μg of expression vector for PPARδwt, PPARδdn, CREBwt, CREBdn or mock vector by use of TransIT LT-1. After 17 h of transfection, cells were incubated in fresh EGM-2 containing 2% FBS. After another 24 h, the cells were washed with PBS, and cultured in EGF-2 containing 2% FBS with 10 μM cPGI for 24 h to quantify luciferase and β-galactosidase activities as described previously (Hatae et al., J. Biol. Chem. (2001) 276: 46260-7). The luciferase activity of the extract was normalized to β-galactosidase activity.

[2] = test system: PPRE (PPARδ activation); experiment: PPREx3-luciferase reporter assay; format: cell-based, human; conditions: HUVEC, 24 h
Procedure: Primary cultured human umbilical vein endothelial cells (HUVEC) and human aortic endothelial cells (HAEC) were obtained from Kurabo Co. Ltd. (Tokyo, Japan) and were cultured in EGM-2 growth medium supplemented with 2% fetal bovine serum (FBS) and a mixture of growth factors according to the supplier's instructions. Total RNA from the cells in culture was prepared with Isogen (Nippon Gene, Tokyo, Japan). Human embryonic kidney HEK-293 cells were cultured in DMEM containing 10% FBS, 2 mM L-glutamine, 100 U/ml penicillin and […] streptomycin as described previously (Hatae et al., J. Biol. Chem. (2001) 276: 46260-7). […] HEK-293 cells were transfected with DNA using lipofectAMINE (Invitrogen, Carlsbad, Calif.) as described previously (Hatae et al., J. Biol. Chem. (2001) 276: 46260-7). Human vascular endothelial cells were transfected with TransIT LT-1 (PanVera Co., Madison, Wis.). Transfections were performed at a ratio of 1 μg of DNA to 3.0 μl of the reagents, and cells were incubated in serum-free EGM-2 at 37° C. for 5 h. Subsequently, cells were grown in fresh EGM-2 containing 2% FBS and a mixture of growth factors for 12 h before analysis. For reporter assay, human vascular endothelial cells (1.2×10^4 cells/cm^2) were cotransfected with 0.2 μg of the PPREx3-luciferase reporter vector and 0.1 μg of β-galactosidase expression vector by use of TransIT LT-1. After 17 h of transfection, cells were washed with PBS, incubated in EGM-2 containing 2% FBS and cPGI (0-100 μM) for 24 h at 37° C., and subjected to luciferase assay as described previously (Hatae et al., J. Biol. Chem. (2001) 276: 46260-7). The luciferase activity of the extract was normalized to β-galactosidase activity.

[3] = test system: IL-13 gene; experiment: RT-PCR analysis of IL-13 mRNA; format: cell-based, human; conditions: HUVEC, 10 μM cPGI, 12 h, FIG. 1A
Procedure: (§1) For analysis of IL-13, human vascular endothelial cells (1.2×10^4 cells/cm^2) were stimulated with cPGI (10 μM) for 12 h, and total RNA was prepared from stimulated cells with Isogen (Nippon Gene). For analysis of COX-2, human vascular endothelial cells (1.2×10^4 cells/cm^2) were pretreated with TNF-α (1 ng/ml) and IL-1b (20 ng/ml) for 1 h, and then treated with cPGI (0, 10 μM), anti-human IL-13 monoclonal antibody (0, 0.5 μg/ml) and control IgG (0, 0.5 μg/ml) for 12 h to prepare total RNA. The total RNA (0.5 μg) was used for analysis by SuperScript RT-PCR system (Invitrogen) according to the manufacturer's instructions. The oligonucleotide primers used were IL-13-s (5′-[…]-3′ (SEQ ID NO: 6); sense) and IL-13-as (5′-[…]-3′ (SEQ ID NO: 7); antisense) for human IL-13, β-actin-s (5′-[…]-3′ (SEQ ID NO: 8); sense) and β-actin-as (5′-[…]-3′ (SEQ ID NO: 9); antisense) for human β-actin, and COX-2-s (5′-[…]-3′ (SEQ ID NO: 10); sense) and COX-2-as (5′-[…]-3′ (SEQ ID NO: 11); antisense) for human COX-2. For each PCR amplification, 1 μl of cDNA was used in a 50 μl reaction. Reverse transcription-PCR (RT-PCR) for β-actin (25 cycles) was used as an internal control for mRNA abundance. For IL-13 and COX-2 genes, the number of cycles ranged from 25 to 45. […] Samples were normalized based on equivalent expression of β-actin.

[4] = test system: COX-2 gene; experiment: RT-PCR analysis of COX-2 mRNA; format: cell-based, human; conditions: HUVEC, cPGI 10 μM, 12 h, FIG. 5 lane 3
Procedure: as §1

[5] = 413 bp IL-13 promoter fragment, FIG. 3

Question: With CCCCC[C@H](O)/C=C/[C@@H]1[C@H]2C/C(=C/CCCC(=O)O)C[C@H]2C[C@H]1O [cPGI, carbaprostacyclin] as the compound, how does the “cPGI-dependent IL-13 promoter luciferase activity on coexpression of dominant negative CREB (CREBdn)” value [1, 5] read?
Answer: no effect

Question: And the “cPGI-dependent increase of IL-13 promoter luciferase activity on cotransfection of dominant negative PPARδ (PPARδdn)” value [1, 5]?
Answer: suppressed

Question: And the “luciferase activity of reporter vector containing GATA sequences without PPREs” value ([1]; HUVEC, FIG. 2B)?
Answer: increased only weakly

Question: What about the “luciferase activity of reporter vectors containing the PPRE consensus region of the IL-13 promoter” value ([1]; HUVEC, FIG. 2B) of the same compound?
Answer: significantly increase

Question: What about the “luciferase activity of vectors from which the PPRE consensus sequence region had been deleted” value ([1]; HUVEC, FIG. 2B) of the same compound?
Answer: not increased

Question: What about the “luciferase activity of PPRE reporter, exogenous cPGI added to TNF-α” value ([2]; TNF-α 0-10 ng/ml with cPGI 0, 2 or 10 μM, dose-dependent, FIG. 4B) of the same compound?
Answer: enhanced

Question: What about the “luciferase activity of reporter vector containing PPRE” value ([2]; cPGI 0, 1, 10 and 100 μM, FIG. 1C) of the same compound?
Answer: dose-dependent

Question: What about the “IL-13 mRNA expression (RT-PCR)” value [3] of the same compound?
Answer: apparent induction

Question: And the “inducible expression of COX-2 (TNF-α and IL-1 induced)” value [4]?
Answer: significantly inhibited

Reference: patent publication US20050080140A1, “Method for treating or preventing inflammatory disorders” (AnGes MG, Inc., priority 2003, published 2005)
